Laboratory results: patent US9486422B2, “Small molecule inhibitors of Mcl-1 and the uses of thereof” (THE REGENTS OF THE UNIVERSITY OF MICHIGAN, priority 2011, dated 2016)

Legend:
Bcl-2 [1] = target: T1, Bcl-2 (Homo sapiens, UniProt P10415); test: FP-based binding assay, Bcl-2; conditions: read-out: Bcl-2 Ki ± SD
T1 construct: His-tagged proteins containing; fused on or other part: A 16-residue segment of the flexible loop of Bcl-xL (BCL2L1, Q07817; given as residues 35 to 50) set into the Bcl-2 loop region; His tag with TEV site from the pHis-TEV vector

Bcl-2 [2] = test: FP-based binding assay, Bcl-2
Bcl-w = target: T2, Bcl-w (Homo sapiens, UniProt Q92843); test: FP-based binding assay, Bcl-w
T2 sequence (Q92843 1-155): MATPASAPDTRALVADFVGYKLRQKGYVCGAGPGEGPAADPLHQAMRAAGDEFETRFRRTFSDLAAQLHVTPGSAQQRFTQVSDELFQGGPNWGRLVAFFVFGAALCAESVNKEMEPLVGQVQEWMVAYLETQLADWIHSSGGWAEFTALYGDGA

[3] = target: Mcl-1/Bax protein-protein interactions (Homo sapiens, UniProt Q07820); test: SPR competitive solution binding assay, Mcl-1 to immobilized Bax; conditions: Mcl-1 300 nM pre-incubated with inhibitor; read-out: IC50, inhibition of binding of Mcl-1 to Bax
Protocol: SPR experiments were performed using Biacore 2000 optical biosensors. Recombinant Bax, residues 1 to 100 (Novus Biologicals) and Mcl-1 proteins were used for competitive solution binding experiments. The details for immobilization of Bax protein, determination of the binding affinity of Mcl-1 to Bax, and conditions for testing Mcl-1 compounds are provided.
Recombinant Bax protein (residues 1-100) purchased from Novus Biologicals, Inc., was immobilized on a CM-5 sensor chip at different densities using standard EDC/NHS coupling chemistry followed by ethanolamine deactivation of the surfaces. […] Determination of kon, koff and Kd were calculated by simultaneous non-linear regression using BIAEvaluation software.
Using the same Bax immobilized CM5 chip, SPR competitive solution binding experiments were performed by pre-incubated Mcl-1 protein (300 nM) with tested small-molecule inhibitors for at least 30 minutes and then the reaction mixture was injected over the surfaces of the chip. Response units were measured at 60 seconds in the dissociation phase and the specific binding was calculated by subtracting the control surface (Fc1) signal from the surfaces with immobilized Bax. […] IC50 values were determined by non-linear least squares analysis using Graph Pad Prism 5.0 software.

BxPC-3 = test: Cell growth inhibition (WST-8), BxPC-3; type: cell-based; conditions: Homo sapiens, BXPC-3, 96 h; 4 days treatment
Protocol: (§1) Human PC cell lines AsPC-1, BxPC-3 and Capan-2 were cultured in RPMI 1640 medium, while Panc-1 and MiaPaCa were cultured in DMEM medium (Life Technologies), all supplemented with 10% fetal bovine serum (Thermo Scientific HyClone). The rate of cell growth inhibition after treatment with increasing concentrations of the tested compounds was determined by WST-8 assay as described in the manufacturers protocol (Dojindo Molecular Technologies Inc.).

Panc-1 = test: Cell growth inhibition (WST-8), Panc-1; type: cell-based; conditions: Homo sapiens, PANC-1, 96 h; 4 days treatment
Protocol: as §1

AsPc1 = test: Cell growth inhibition (WST-8), AsPc1; type: cell-based; conditions: Homo sapiens, ASPC1, 96 h; 4 days treatment
Protocol: as §1

[4] = test system: cytochrome c and Smac release in Panc-1 cells; test: Release of cytochrome c and Smac from mitochondria (Western blot); type: cell-based, human; conditions: 24 h treatment
Protocol: The cells were treated and harvested at the indicated time points after treatment. Total cell lysates were subjected to electrophoresis onto SDS-containing 4-20% polyacrylamide gels (Invitrogen), and transferred to polyvinylidene difluoride (PVDF) membranes (Thermo Scientific). Following blocking in 5% milk, membranes were incubated with a specific primary antibody, washed, and incubated with horseradish peroxidase linked secondary antibody (Santa Cruz). The signals were visualized with the chemiluminescent horseradish peroxidase antibody detection reagent (Roche Molecular Biochemicals). Primary antibodies included: caspase-3 (Enzo Life Sciences), Mcl-1 and actin (Santa Cruz), Bcl-xL (BD Transduction Laboratories); Bcl-2, Bax, pro-PARP and cytochrome-c (Cell Signaling), Bak (Calbiochem), and Smac (Abgent).

[5] = target: T3, Mcl-1/Bax and Mcl-1/Bak complexes in BxPC-3 cells (Homo sapiens, UniProt Q07820); test: Immunoprecipitation with Mcl-1 antibody, BxPC-3; type: cell-based; conditions: 4 μM, 24 h
T3 construct: endogenous in cells; host or cells: BxPC-3
Protocol: Cell lysate (500 μg) were subjected to immunoprecipitation by adding 2.5-5 μg of anti-Mcl-1 antibody and incubation overnight at 4° C. After adding 30 μl of Protein G-agarose (Immunoprecipitation Kit, Sigma) and incubation for 4 h, the samples were centrifuged. The agarose pellet was then washed 7 times, resuspended in Laemmli buffer (Santa Cruz), and boiled for 5 min. Boiled samples were centrifuged, and supernatant was used for Western blot analysis.

[6] = test system: wild type (WT) murine embryonic fibroblasts (MEF); test: Induction of apoptosis in MEF WT cells; type: cell-based; conditions: 10 μM, 24 h
[7] = test system: Bax/Bak-deficient (DKO) MEFs; test: Induction of apoptosis in MEF DKO cells; type: cell-based, murine; conditions: 10 μM, 24 h
[8] = test system: activated Bax in BxPC-3 cells; test: Bax activation, 6A7 anti-Bax immunostaining, BxPC-3; type: cell-based, human; conditions: 24 h
Protocol: Cells mounted on glass slides were permeabilized with PBS containing 0.3% Triton X-100, and blocked with 1% bovine serum albumin in PBS for 30 min at room temperature, followed with overnight incubation with anti-Bak 6A7 (Calbiochem) at 4° C. After thorough washing of the sections in PBS, a secondary antibody labeled with DyLight 488 (Thermo Scientific) was added and incubated for 2 h at room temperature. Nuclei were visualized with DAPI. Samples were analyzed with a FluoView 500 Confocal Laser Scanning Microscope (Olympus).

BxPC-3 xenograft = BxPC-3 xenograft efficacy in SCID mice; type: in vivo; conditions: 60 mg/kg i.v., 5 days a week for two weeks
Protocol: For BxPC-3 subcutaneous model, 10×10^6 cells were subcutaneously injected into the flanks of 4-5 week old female severe combined immune deficient mice (ICR-SCID) (Taconic Farms) using 26 G ½ Precision Glide needles (Becton Dickinson). […] Tumors were measured twice weekly using a caliper and expressed in mg. To prevent any pain or discomfort, mice were euthanized and their tumors removed once they reached ˜1800 mg burden. […] Tumor weight was recorded throughout the treatment period using previously described methods.

[9] = test system: bone marrow derived cells from patients with multiple myeloma; test: Cellular viability (trypan blue), multiple myeloma patient cells; type: cell-based; conditions: Homo sapiens, 0-10 μM, 0-72 hrs
Description: Blood or bone marrow samples from multiple myeloma patients was obtained from treated or untreated patients after informed consent. Plasma cells were obtained after gradient density centrifugation using Ficoll Hypaque. Some samples were purified for C138^+ population using flow cytometry. In all cases, purity of the plasma cells was higher than 90%, as assessed by morphology.
Isolated MM cells were maintained in RPMI 1640 medium supplemented with 10% fetal bovine serum (Hyclone Laboratories, Logan, Utah) and 1% Penicillin-Streptomycin (Invitrogen, Carlsbad, Calif.), at 37° C. in a humidified incubator with 5% CO2. […] The number of viable cells was determined by trypan blue exclusion test with trypan blue (0.4%) purchased from Sigma Chemical Co. (St. Louis, Mo.). All experiments are performed in triplicate and statistical analysis was done using the t test (two tailed) with 95% confidence intervals between treated and untreated samples. P<0.05 was used to indicate statistical significance.

[10] = mouse, in vivo, iv, 60 mg/kg

T3 sequence (Q07820 whole entry, one chain of several): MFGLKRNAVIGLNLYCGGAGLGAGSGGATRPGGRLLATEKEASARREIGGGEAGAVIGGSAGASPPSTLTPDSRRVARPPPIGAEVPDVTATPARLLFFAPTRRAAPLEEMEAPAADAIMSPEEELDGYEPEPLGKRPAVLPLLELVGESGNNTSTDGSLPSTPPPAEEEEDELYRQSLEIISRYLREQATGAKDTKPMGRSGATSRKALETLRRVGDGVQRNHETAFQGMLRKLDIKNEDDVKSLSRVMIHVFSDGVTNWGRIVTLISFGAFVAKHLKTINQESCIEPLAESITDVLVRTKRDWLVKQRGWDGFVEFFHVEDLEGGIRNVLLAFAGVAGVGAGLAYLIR
T1 sequence (P10415 with tags, fused parts or gaps with the stated changes): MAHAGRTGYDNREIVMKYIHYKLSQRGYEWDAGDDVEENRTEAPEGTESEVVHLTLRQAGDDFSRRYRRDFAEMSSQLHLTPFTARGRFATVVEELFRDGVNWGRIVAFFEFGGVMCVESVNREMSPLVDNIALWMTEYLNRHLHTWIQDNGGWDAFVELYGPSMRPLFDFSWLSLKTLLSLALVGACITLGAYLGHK
Mcl-1/Bax protein-protein interactions, sequence (Q07820 171-327): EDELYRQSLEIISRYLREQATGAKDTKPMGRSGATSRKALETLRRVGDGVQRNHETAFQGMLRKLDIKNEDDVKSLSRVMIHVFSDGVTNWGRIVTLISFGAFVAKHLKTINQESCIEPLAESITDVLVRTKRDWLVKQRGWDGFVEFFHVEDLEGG

O=C(O)CSc1cc(NS(=O)(=O)c2ccc(Br)cc2)c2ccccc2c1O [Compound 9, 2-((4-(4-Bromophenylsulfonamido)-1-hydroxynaphthalen-2-yl)thio)acetic acid]
Ki (Bcl-2 [1]): 23.8 ± 1.81 µM
fold lower affinity to Bcl-2 than to Mcl-1 (selectivity) (Bcl-2 [2]): more than 50 fold
fold lower affinity to Bcl-w than to Mcl-1 (selectivity) (Bcl-w): 17 fold
Ki (Bcl-w; competitive FP, FAM-BID 2 nM, protein 40 nM, read-out: Bcl-w Ki ± SD): 8.19 ± 1.9 µM
IC50 [3]: 1.43 ± 0.14 µM
IC50 (BxPC-3): 3.4 ± 0.4 µM
IC50 (Panc-1): 4.4 ± 1.3 µM
IC50 (AsPc1): 16.1 ± 4.2 µM
concentration from which cytochrome c and Smac are released [4]: ≥ 10 µM
inhibition of endogenous interactions of Bax and Bak with Mcl-1 [5]: complete inhibition
apoptosis in MEF WT cells [6]: more than 60%
apoptotic cells in MEF DKO cells [7]: 16%
concentration from which activated Bax increases [8]: ≥ 5 µM
tumor growth inhibition (BxPC-3 xenograft; day 19 (p<0.0001)): 65%
tumor growth inhibition (BxPC-3 xenograft; day 22 (p<0.003)): 56%
IC50 [9]: 2.5 to 5 µM
histopathology (H&E) of normal tissues [10]: did not cause damage to tested tissues from kidney, liver and pancreas
